The text below walks through data of US8921416B2, “Dronedarone solid dispersion and preparation method thereof” (Jiangsu Hengrui Medicine Co., Ltd., priority 2010, dated 2014).

A short description of data set [1]: 24 h solubility of solid dispersions in PBS pH6.8. The class given is physicochemical. The note with it: 37 °C, pH 6.8, aqueous buffer, thermodynamic from solid. Here is the method:
The weight ratio of the drug to the carrier was 1:5. Different hydrophilic polymeric carrier materials were selected from the group consisting of polyethylene glycol 6000, poloxamer 188, PVP K30, Klucel® EF, Plasdone® S-630, mannitol and combinations thereof respectively. 12 parts by weight of dichloromathane were added into the drug and carrier mixture, and was dissolved by stirring. Then the solution was transferred to a vacuum oven, maintained at 55° C., dried under reduced pressure for 48 h. Then the dry mass was crushed with a 100 mesh sieve, thereby the solid dispersion of dronedarone was obtained. The solubilities of the solid dispersion in the phosphate buffered saline (PBS) at pH6.8 were measured as follows.
24 h Solubility Determination: aliquots of the prepared solid dispersion were added into a 100 ml conical flask respectively. Then 50 ml PBS pH6.8 were added. The conical flask was sealed and placed in a thermostatic waterbath shaker and shaked at a set temperature of 37° C. for 24 h. After 24 hours, 10 mL of the solution were taken and filtrated. The initial 4 mL of the filtrate were abandoned and the subsequent filtrate were taken and diluted with PBS pH6.8 to a corresponding folds. The UV absorbance at 290 nm was measured with a UV spectrophotometer. Then the drug solubilities were calculated.

The conditions of data set [2]: pH=7; cited from earlier work.

Where a name gives a salt, the structure may show the parent alone.

Regarding `CCCCc1oc2ccc(NS(C)(=O)=O)cc2c1C(=O)c1ccc(OCCCN(CCCC)CCCC)cc1` [Dronedarone hydrochloride], the solubility at 24 h in data set [1] was found to be 12 µg/mL.
As to `CCCCc1oc2ccc(NS(C)(=O)=O)cc2c1C(=O)c1ccc(OCCCN(CCCC)CCCC)cc1` [dronedarone, N-(2-Butyl-3-(4-(3-(dibutylamino)propoxy)benzoyl)-5-benzofuranyl)methanesulfonamide], the “solubility in an aqueous solution” value in data set [2] is “about 10 μg/ml”.

One may read the solubility as the dissolved amount per volume that the medium holds.
